# Test results published in ChEMBL document CHEMBL3885861, “Open TG-GATES”.
# Species on record: Rattus norvegicus
# Experiment: Open TG-GATES - Regimen: Single
# Format: toxicity, organism-based, Sprague-Dawley
# Design: regimen Single, gender Male, age 6 weeks
# Conditions: in vivo, po, 0 mg/kg, route gavage, dose level Control; for APTT / Bas / Eos / Fbg / Hb / Ht / Lym / MCH / MCHC / MCV / Mono / Neu / PT / Plat / RBC / Ret / WBC: tissue Blood; for KIDNEY_L / KIDNEY_R / KIDNEY_TOTAL: tissue Kidney; for LIVER: tissue Liver
compound,measurement,setting,value
CC(=O)N1CCN(c2ccc(OCC3COC(Cn4ccnc4)(c4ccc(Cl)cc4Cl)O3)cc2)CC1 (stereo not given) [KETOCONAZOLE],TERMINAL_BW,3 h,204 g
same,APTT,3 h,20.5 s
same,Bas,3 h,0%
same,Eos,3 h,0.8%
same,Fbg,3 h,282.4 mg/dL
same,Hb,3 h,12.8 g/dL
same,Ht,3 h,38.4%
same,Lym,3 h,76.4%
same,MCH,3 h,21.5 pg
same,MCHC,3 h,33.4%
same,MCV,3 h,64.4 fL
same,Mono,3 h,1.6%
same,Neu,3 h,19.8%
same,PT,3 h,16.9 s
same,Plat,3 h,117 x10_4/uL
same,RBC,3 h,596.2 x10_4/ul
same,Ret,3 h,8.8%
same,WBC,3 h,73.4 x10_2/uL
same,KIDNEY_L,3 h,0.9 g
same,KIDNEY_R,3 h,0.9 g
same,KIDNEY_TOTAL,3 h,1.9 g
same,LIVER,3 h,9.8 g
same,ALP,"3 h, tissue Plasma",1856.6 IU/L
same,AST,"3 h, tissue Plasma",76.2 IU/L
same,BUN,"3 h, tissue Plasma",13.2 mg/dL
same,CRE,"3 h, tissue Plasma",0.2 mg/dL
same,Ca,"3 h, tissue Plasma",11 mg/dL
same,Cl,"3 h, tissue Plasma",104.8 meq/L
same,DBIL,"3 h, tissue Plasma",0.004 mg/dL
same,GLC,"3 h, tissue Plasma",175.4 mg/dL
same,IP,"3 h, tissue Plasma",7.9 mg/dL
same,LDH,"3 h, tissue Plasma",167.6 IU/L
same,Na,"3 h, tissue Plasma",141.8 meq/L
same,PL,"3 h, tissue Plasma",135 mg/dL
same,RALB,"3 h, tissue Plasma",2.9 g/dL
same,TBIL,"3 h, tissue Plasma",0.016 mg/dL
same,TC,"3 h, tissue Plasma",74.8 mg/dL
same,TG,"3 h, tissue Plasma",63.2 mg/dL
same,TP,"3 h, tissue Plasma",5.4 g/dL
same,gamma-GTP,"3 h, tissue Plasma",1 IU/L
same,TERMINAL_BW,6 h,204.2 g
same,APTT,6 h,21.3 s
same,Bas,6 h,0%
same,Eos,6 h,0.8%
same,Fbg,6 h,293.6 mg/dL
same,Hb,6 h,13.2 g/dL
same,Ht,6 h,39.7%
same,Lym,6 h,83.2%
same,MCH,6 h,21.5 pg
same,MCHC,6 h,33.2%
same,MCV,6 h,64.7 fL
same,Mono,6 h,1.8%
same,Neu,6 h,13.4%
same,PT,6 h,16.9 s
same,Plat,6 h,122.1 x10_4/uL
same,RBC,6 h,613.4 x10_4/ul
same,Ret,6 h,8.4%
same,WBC,6 h,78.2 x10_2/uL
same,KIDNEY_L,6 h,1 g
same,KIDNEY_R,6 h,1 g
same,KIDNEY_TOTAL,6 h,1.9 g
same,LIVER,6 h,9.1 g
same,ALP,"6 h, tissue Plasma",1433 IU/L
same,AST,"6 h, tissue Plasma",71 IU/L
same,BUN,"6 h, tissue Plasma",9.6 mg/dL
same,CRE,"6 h, tissue Plasma",0.2 mg/dL
same,Ca,"6 h, tissue Plasma",10.8 mg/dL
same,Cl,"6 h, tissue Plasma",105.6 meq/L
same,DBIL,"6 h, tissue Plasma",0 mg/dL
same,GLC,"6 h, tissue Plasma",176.8 mg/dL
same,IP,"6 h, tissue Plasma",8.4 mg/dL
same,LDH,"6 h, tissue Plasma",197.4 IU/L
same,Na,"6 h, tissue Plasma",141.2 meq/L
same,PL,"6 h, tissue Plasma",124.2 mg/dL
same,RALB,"6 h, tissue Plasma",2.9 g/dL
same,TBIL,"6 h, tissue Plasma",0.022 mg/dL
same,TC,"6 h, tissue Plasma",67.6 mg/dL
same,TG,"6 h, tissue Plasma",47.6 mg/dL
same,TP,"6 h, tissue Plasma",5.4 g/dL
same,gamma-GTP,"6 h, tissue Plasma",1 IU/L
same,TERMINAL_BW,9 h,201.8 g
same,APTT,9 h,21.3 s
same,Bas,9 h,0%
same,Eos,9 h,1.2%
same,Fbg,9 h,294.4 mg/dL
same,Hb,9 h,13 g/dL
same,Ht,9 h,38.9%
same,Lym,9 h,75%
same,MCH,9 h,21.1 pg
same,MCHC,9 h,33.3%
same,MCV,9 h,63.3 fL
same,Mono,9 h,1.8%
same,Neu,9 h,21.4%
same,PT,9 h,16.4 s
same,Plat,9 h,138.7 x10_4/uL
same,RBC,9 h,615.6 x10_4/ul
same,Ret,9 h,7.7%
same,WBC,9 h,69.1 x10_2/uL
same,KIDNEY_L,9 h,1 g
same,KIDNEY_R,9 h,1 g
same,KIDNEY_TOTAL,9 h,1.9 g
same,LIVER,9 h,8.6 g
same,ALP,"9 h, tissue Plasma",1580.4 IU/L
same,AST,"9 h, tissue Plasma",75 IU/L
same,BUN,"9 h, tissue Plasma",10.2 mg/dL
same,CRE,"9 h, tissue Plasma",0.2 mg/dL
same,Ca,"9 h, tissue Plasma",10.4 mg/dL
same,Cl,"9 h, tissue Plasma",106 meq/L
same,DBIL,"9 h, tissue Plasma",0.008 mg/dL
same,GLC,"9 h, tissue Plasma",180.4 mg/dL
same,IP,"9 h, tissue Plasma",9.5 mg/dL
same,LDH,"9 h, tissue Plasma",227.2 IU/L
same,Na,"9 h, tissue Plasma",142.2 meq/L
same,PL,"9 h, tissue Plasma",125.6 mg/dL
same,RALB,"9 h, tissue Plasma",3.1 g/dL
same,TBIL,"9 h, tissue Plasma",0.026 mg/dL
same,TC,"9 h, tissue Plasma",67.2 mg/dL
same,TG,"9 h, tissue Plasma",52.6 mg/dL
same,TP,"9 h, tissue Plasma",5.5 g/dL
same,gamma-GTP,"9 h, tissue Plasma",1 IU/L
same,TERMINAL_BW,24 h,213.9 g
same,APTT,24 h,19.8 s
same,Bas,24 h,0%
same,Eos,24 h,0.8%
same,Fbg,24 h,307.2 mg/dL
same,Hb,24 h,13.3 g/dL
same,Ht,24 h,38.9%
same,Lym,24 h,77.6%
same,MCH,24 h,21.8 pg
same,MCHC,24 h,34.2%
same,MCV,24 h,63.9 fL
same,Mono,24 h,2%
same,Neu,24 h,19%
same,PT,24 h,16.7 s
same,Plat,24 h,117.4 x10_4/uL
same,RBC,24 h,609 x10_4/ul
same,Ret,24 h,7.5%
same,WBC,24 h,70.3 x10_2/uL
same,KIDNEY_L,24 h,1 g
same,KIDNEY_R,24 h,1 g
same,KIDNEY_TOTAL,24 h,2 g
same,LIVER,24 h,10.4 g
same,ALP,"24 h, tissue Plasma",1980.8 IU/L
same,ALT,"24 h, tissue Plasma",44 IU/L
same,AST,"24 h, tissue Plasma",73.2 IU/L
same,BUN,"24 h, tissue Plasma",16.4 mg/dL
same,CRE,"24 h, tissue Plasma",0.2 mg/dL
same,Ca,"24 h, tissue Plasma",10.7 mg/dL
same,Cl,"24 h, tissue Plasma",107.2 meq/L
same,DBIL,"24 h, tissue Plasma",0 mg/dL
same,GLC,"24 h, tissue Plasma",185.6 mg/dL
same,IP,"24 h, tissue Plasma",6.5 mg/dL
same,LDH,"24 h, tissue Plasma",211.2 IU/L
same,Na,"24 h, tissue Plasma",142.2 meq/L
same,PL,"24 h, tissue Plasma",147 mg/dL
same,RALB,"24 h, tissue Plasma",3.1 g/dL
same,TBIL,"24 h, tissue Plasma",0.002 mg/dL
same,TC,"24 h, tissue Plasma",76.6 mg/dL
same,TG,"24 h, tissue Plasma",107.6 mg/dL
same,TP,"24 h, tissue Plasma",5.6 g/dL
